Test results as given in patent publication US20240124398A1 (priority 2021, published 2024).
Several values for one entry are separate records, joined by “and”; a condition that tells them apart may be missing. Identical values can stand only once. Entries after “also recorded” stand apart in the source; their conditions may differ. Counter-ions that a name gives are not always drawn.

Tests used:
[1] = Static storage for 7 days at 40° C./75% RH (XRPD and HPLC); conditions: for Static Storage 40° C./75% RH: HPLC: HPLC purity after 7 days at 40° C. and 75% relative humidity; for Static Storage 40° C./75% RH: XRPD: XRPD pattern after 7 days at 40° C. and 75% relative humidity
[2] = Intrinsic dissolution rate (IDR); assay type: physicochemical; conditions: for IDR (in words): ranking among TAR Pattern 1, SUC Pattern 3, BEN Pattern 1
[3] = GVS (hygroscopicity); assay type: physicochemical
[4] = Solubility of psilocin salts in saline; conditions: for XRPD of Residue: solid residue after 5 hours in saline; for Solubility (in words): comparison among forms or with freeform
[5] = Table 9, saturated solution in saline, 25° C., 5 hours

Molecule: CN(C)CCc1c[nH]c2cccc(O)c12.O=C(O)c1ccccc1 [BEN Pattern 1, Psilocin benzoate]
- Static Storage 40° C./75% RH: HPLC [1]: HPLC- 99.0%
- Static Storage 40° C./75% RH: XRPD [1]: BEN Pattern 1
- IDR [2]: 0.4 mg/min/cm2
- IDR (in words) [2]: lowest
- GVS hygroscopicity (in words) [3]: Non-hygroscopic
- GVS reversible mass change between 0-90% RH [3]: Reversible 0.25%
- pH at 5 hrs ([4]; Table 9, saturated solution in saline, 25° C., 5 hours, listed as Psilocin benzoate BEN Pattern 1): 6.8 and 6.9
- XRPD of Residue ([4]; Table 9): BEN Pattern 1
- pH at 5 hrs ([4]; Table 10 (updated), saline, listed as Psilocin benzoate BEN Pattern 1): 6.8 and 6.9
- Solubility (in words) ([4]; saline): substantial increases in solubility compared with the freeform; also recorded: lowest solubility
- Solubility in Saline ([4]; summary Table 4, saline, 25° C., 5 hours): 5000 µg/mL

Molecule: CN(C)CCc1c[nH]c2cccc(O)c12.O=S(=O)(O)c1cccc2c(S(=O)(=O)O)cccc12 [Psilocin 1,5-napthalenedisulfonate NAP Pattern 1]
- Static Storage 40° C./75% RH: HPLC [1]: HPLC- 97.2%
- Static Storage 40° C./75% RH: XRPD [1]: NAP Pattern 1
- pH at 5 hrs [4, 5]: 2.0
- XRPD of Residue ([4]; Table 9): NAP Pattern 1
- pH at 5 hrs ([4]; Table 10 (updated), saline): 2.0
- Solubility (in words) ([4]; saline): substantial increases in solubility compared with the freeform

Molecule: CN(C)CCc1c[nH]c2cccc(O)c12.O=S(=O)(O)c1cccc2c(S(=O)(=O)O)cccc12 [Psilocin 1,5-napthalenedisulfonate NAP Pattern 2]
- Static Storage 40° C./75% RH: HPLC [1]: HPLC - 99.2%
- Static Storage 40° C./75% RH: XRPD [1]: NAP Pattern 1

Molecule: CN(C)CCc1c[nH]c2cccc(O)c12 [Psilocin free base, Psilocin, reference compound]
- IDR [2]: [Freeform = 0.09] mg/min/cm2
- pH at 5 hrs [4, 5]: 9.8 and 9.9
- XRPD of Residue ([4]; Table 9): Freeform Pattern 1
- pH at 5 hrs ([4]; Table 10 (updated), saline): 9.8 and 9.9

Molecule: CN(C)CCc1c[nH]c2cccc(O)c12 [Psilocin hydrochloride HCl Pattern 1, Psilocin hydrochloride]
- pH at 5 hrs ([4]; Table 9, saturated solution in saline, 25° C., 5 hours, hydrochloride): 6.0 and 6.1
- pH at 5 hrs ([4]; Table 10 (updated), saline, hydrochloride): 4.0 and 5.4

Molecule: CCC(=O)O.CN(C)CCc1c[nH]c2cccc(O)c12 [Psilocin propionate PRO Pattern 1, Psilocin propionate]
- Static Storage 40° C./75% RH: HPLC [1]: HPLC- 99.4%
- Static Storage 40° C./75% RH: XRPD [1]: PRO Pattern

Molecule: CN(C)CCc1c[nH]c2cccc(O)c12.O=C(O)c1ccccc1O [Psilocin salicylate SAL Pattern 1, Psilocin salicylate]
- Static Storage 40° C./75% RH: HPLC [1]: HPLC- 99.1%
- Static Storage 40° C./75% RH: XRPD [1]: SAL Pattern
- pH at 5 hrs [4, 5]: 4.2
- XRPD of Residue ([4]; Table 9): SAL Pattern 1
- pH at 5 hrs ([4]; Table 10 (updated), saline): 4.2
- Solubility (in words) ([4]; saline): substantial increases in solubility compared with the freeform

Molecule: CN(C)CCc1c[nH]c2cccc(O)c12.O=C(O)c1ccccc1O [Psilocin salicylate SAL Pattern 2, Psilocin salicylate]
- Static Storage 40° C./75% RH: HPLC [1]: HPLC- 99.8%
- Static Storage 40° C./75% RH: XRPD [1]: SAL Pattern 2 +

Molecule: Psilocin acetate [Psilocin acetate ACE Pattern 1]
- Static Storage 40° C./75% RH: HPLC [1]: HPLC - 75.2%
- Static Storage 40° C./75% RH: XRPD [1]: ACE Pattern 1 +

Molecule: Psilocin acetate [Psilocin acetate ACE Pattern 2]
- Static Storage 40° C./75% RH: HPLC [1]: HPLC- 83.4%
- Static Storage 40° C./75% RH: XRPD [1]: ACE Pattern 3

Molecule: Psilocin adipate [Psilocin adipate ADI Pattern 1]
- Static Storage 40° C./75% RH: HPLC [1]: HPLC- 98.4%
- Static Storage 40° C./75% RH: XRPD [1]: ADI Pattern 1 +

Molecule: Psilocin adipate [Psilocin adipate ADI Pattern 2]
- Static Storage 40° C./75% RH: HPLC [1]: HPLC- 98.1%
- Static Storage 40° C./75% RH: XRPD [1]: ADI Pattern 3

Molecule: Psilocin fumarate [Psilocin fumarate FUM Pattern 1]
- Static Storage 40° C./75% RH: XRPD [1]: FUM Pattern 3; also recorded: FUM Pattern 4

Molecule: Psilocin oxalate [Psilocin oxalate OX Pattern 1]
- Static Storage 40° C./75% RH: HPLC [1]: HPLC- 94.4%
- Static Storage 40° C./75% RH: XRPD [1]: OX Pattern 3

Molecule: Psilocin oxalate [Psilocin oxalate OX Pattern 2]
- Static Storage 40° C./75% RH: HPLC [1]: HPLC- 97.1%
- Static Storage 40° C./75% RH: XRPD [1]: OX Pattern 3 +

Molecule: Psilocin pamoate [Psilocin pamoate PAM Pattern 1]
- Static Storage 40° C./75% RH: HPLC [1]: HPLC- 99.6%
- Static Storage 40° C./75% RH: XRPD [1]: PAM Pattern 1

Molecule: Psilocin phosphate [Psilocin phosphate PHO Pattern 1]
- Static Storage 40° C./75% RH: HPLC [1]: HPLC - 93.9%
- Static Storage 40° C./75% RH: XRPD [1]: PHO Pattern 2

Molecule: Psilocin succinate
- Static Storage 40° C./75% RH: XRPD [1]: SUC Pattern 5

Molecule: Psilocin succinate [SUC Pattern 3]
- IDR [2]: 12.4 mg/min/cm2
- IDR (in words) [2]: highest IDR
- GVS hygroscopicity (in words) [3]: hygroscopic
- GVS mass change between 0 and 80% RH ([3]; 0-80% RH): Only 1.0% mass

Molecule: Psilocin tartrate
- Static Storage 40° C./75% RH: XRPD [1]: TAR Pattern 4

Molecule: Psilocin tartrate [TAR Pattern 1]
- IDR [2]: 6.9 mg/min/cm2
- IDR (in words) [2]: second highest IDR
- GVS hygroscopicity (in words) [3]: Slightly Hygroscopic
- GVS reversible mass change between 0-90% RH [3]: Reversible 1.4%
- pH at 5 hrs [4, 5]: 3.4
- pH at 5 hrs ([4]; Table 10 (updated), saline): 3.5
